According to article PMC13224317 (SLAS discovery : advancing life sciences R & D, 2025):
Values joined by “and” are separate entries in the source; they are usually repeats but may differ in a detail not shown here. Equal values may be shown once. Read-outs that look alike come from different tables or passages of the source.

Tests used:
icSARS-CoV-2-nLuc [1] = experiment: microbe, parasite or virus in culture; type: cell-based, SARS-CoV-2
icSARS-CoV-2-nLuc [2] = type: cell-based, SARS-CoV-2
icSARS-CoV-2-nLuc [3] = experiment: microbe, parasite or virus in culture; type: cell-based, SARS-CoV-2; settings: Severe acute respiratory syndrome coronavirus 2, 48 h, read-out: IC50 against icSARS-CoV-2-nLuc, immunofluorescence data
icSARS-CoV-2-nLuc [4] = type: cell-based, SARS-CoV-2; remark: listed apart in the source
C3 cell line = experiment: Cytotoxicity toward the C3 cell line (single point at 10 μM and CC50); type: cell-based; settings: raw well reading, duplicate wells
Method: The rate of false positive hits was 2.5% between the two biological replicates. […] The 3 compounds have CC50 equal to- or higher than 36 μM. Based on available information, these three compounds have not been tested against SARS-CoV-2 nor have any reports of antiviral activity, and therefore warrant further investigation.

[5] = Severe acute respiratory syndrome coronavirus 2, A549-ACE2, read-out: IC50, susceptibility of icSARS-CoV-2-nLuc to reference drugs, luminescence readout

CC(C)(C)NC(=O)N[C@H](C(=O)N1C[C@H]2[C@@H]([C@H]1C(=O)NC(CC1CCC1)C(=O)C(N)=O)C2(C)C)C(C)(C)C (some centres unmarked) [Boceprelvir, Boceprevir]
IC50 (icSARS-CoV-2-nLuc [1]; [5]): 3 µM | raw nLuc luminescence signal per well, dose response (icSARS-CoV-2-nLuc [1]; concentration 0.444444 µM): 1318016 and 1552909 and 1027714 and 1937158 and 1341520 and 1697592 and 1866146 and 1427750 | raw nLuc luminescence signal per well, dose response (icSARS-CoV-2-nLuc [1]; concentration 1.33333 µM): 1081320 and 1354101 and 1808712 and 2111860 and 1262757 and 1236512 and 1094043 and 1751641 | raw nLuc luminescence signal per well, dose response (icSARS-CoV-2-nLuc [1]; concentration 12 µM): 325338 and 397893 and 288277 and 313675 and 434098 and 457388 and 421160 and 498406 | raw nLuc luminescence signal per well, dose response (icSARS-CoV-2-nLuc [1]; concentration 36 µM): 152331 and 158422 and 131796 and 134954 and 143730 and 155578 and 143192 and 145460

CC(C)C(=O)OC[C@H]1O[C@@H](n2ccc(NO)nc2=O)[C@H](O)[C@@H]1O [Molnupiravir]
IC50 (icSARS-CoV-2-nLuc [1]; [5]): 1.2 µM | raw nLuc luminescence signal per well, dose response (icSARS-CoV-2-nLuc [1]; concentration 4 µM): 595475 and 830276 and 640577 and 536261 and 913575 and 492391 and 665617 and 629700 | raw nLuc luminescence signal per well, dose response (icSARS-CoV-2-nLuc [1]; concentration 12 µM): 258630 and 294602 and 224846 and 411089 and 320496 and 281484 and 318686 and 264637 | raw nLuc luminescence signal per well, dose response (icSARS-CoV-2-nLuc [1]; concentration 36 µM): 206765 and 173526 and 155560 and 157303 and 194898 and 197104 and 194373 and 153593

CCCC[C@H](NC(=O)[C@@H]1[C@@H]2[C@H](CN1C(=O)[C@@H](NC(=O)NC1(CS(=O)(=O)C(C)(C)C)CCCCC1)C(C)(C)C)C2(C)C)C(=O)C(=O)NC1CC1 [Naraprelvir]
raw nLuc luminescence signal per well, dose response (icSARS-CoV-2-nLuc [1]; concentration 0.00548697 µM): 1369356 and 1475085 and 1731318 and 2527784 and 1481798 and 1643468 and 2199354 and 1849240 | raw nLuc luminescence signal per well, dose response (icSARS-CoV-2-nLuc [1]; concentration 0.0493827 µM): 1943993 and 1719572 and 1531026 and 1265407 and 2037762 and 2296036 and 2164802 and 2297300 | raw nLuc luminescence signal per well, dose response (icSARS-CoV-2-nLuc [1]; concentration 36 µM): 156020 and 155359 and 134274 and 128833 and 143226 and 151190 and 148617 and 136366

CCCC[C@H](NC(=O)[C@@H]1[C@@H]2[C@H](CN1C(=O)[C@@H](NC(=O)NC1(CS(=O)(=O)C(C)(C)C)CCCCC1)C(C)(C)C)C2(C)C)C(=O)C(=O)NC1CC1 [Narlaprevir]
IC50 (icSARS-CoV-2-nLuc [1]; [5]): 2 µM

CC(C)(C)[C@H](NC(=O)C(F)(F)F)C(=O)N1C[C@H]2[C@@H]([C@H]1C(=O)N[C@H](C#N)C[C@@H]1CCNC1=O)C2(C)C [Nirmatrelvir]
IC50 (icSARS-CoV-2-nLuc [1]; [5]): 0.03 µM | raw nLuc luminescence signal per well, dose response (icSARS-CoV-2-nLuc [1]; concentration 0.148148 µM): 129461 and 120874 and 136852 and 130464 and 147289 and 142579 and 149179 and 144629 | raw nLuc luminescence signal per well, dose response (icSARS-CoV-2-nLuc [1]; concentration 0.444444 µM): 144250 and 143681 and 125477 and 126336 and 137581 and 142321 and 138240 and 131508 | raw nLuc luminescence signal per well, dose response (icSARS-CoV-2-nLuc [1]; concentration 1.33333 µM): 118306 and 118449 and 125083 and 124306 and 125230 and 130577 and 130784 and 122912 | raw nLuc luminescence signal per well, dose response (icSARS-CoV-2-nLuc [1]; concentration 4 µM): 141288 and 139348 and 122581 and 121573 and 133806 and 135394 and 143645 and 132419 | raw nLuc luminescence signal per well, dose response (icSARS-CoV-2-nLuc [1]; concentration 12 µM): 120474 and 114610 and 123671 and 120946 and 130686 and 127115 and 126419 and 123917 | raw nLuc luminescence signal per well, dose response (icSARS-CoV-2-nLuc [1]; concentration 36 µM): 145649 and 139944 and 128235 and 120973 and 144302 and 134374 and 139812 and 128239

CCC(CC)COC(=O)[C@H](C)N[P@](=O)(OC[C@H]1O[C@@](C#N)(c2ccc3c(N)ncnn23)[C@H](O)[C@@H]1O)Oc1ccccc1 [REM, Remdesivir]
Low (luminescence signal) (icSARS-CoV-2-nLuc [2]): 335845.000 and 285428.000 and 332082.000 and 282797.000 | Mid % (icSARS-CoV-2-nLuc [2]): 82.63% and 75.37% and 74.20% and 71.84% | Mid (luminescence signal) (icSARS-CoV-2-nLuc [2]): 685741.000 and 855540.000 and 882878.000 and 938084.000 | Midpc (icSARS-CoV-2-nLuc [2]): 82.63 and 75.37 and 74.20 and 71.84 | IC50 (icSARS-CoV-2-nLuc [3]): 0.11 µM | %Spec (icSARS-CoV-2-nLuc [4]): 89.5% and 90.0% and 90.1% | Luminescence signal, Mean (Low signal) (icSARS-CoV-2-nLuc [4]): 181028.44 and 176326.81 and 171413.00 | Luminescence signal, Mean (Mid signal) (icSARS-CoV-2-nLuc [4]): 237318.53 and 220683.44 and 197501.22 | antiviral activity (raw luminescence signal per well) (icSARS-CoV-2-nLuc [1]): 150661 and 137685 and 146593 and 141302 | IC50 (icSARS-CoV-2-nLuc [1]; Severe acute respiratory syndrome coronavirus 2, A549-ACE2, 24 h, read-out: IC50 against icSARS-CoV-2-nLuc, luminescence data): 0.11 µM | inhibition at 10 µM (icSARS-CoV-2-nLuc [1]; Severe acute respiratory syndrome coronavirus 2, A549-ACE2, 24 h, read-out: inhibition of the virus growth, single point screening): ≥ 90% | raw nLuc luminescence signal per well, dose response (icSARS-CoV-2-nLuc [1]; concentration 0.444444 µM): 158425 and 172179 and 190756 and 205337 | raw nLuc luminescence signal per well, dose response (icSARS-CoV-2-nLuc [1]; concentration 4 µM): 140393 and 141108 and 138540 | raw nLuc luminescence signal per well, dose response (icSARS-CoV-2-nLuc [1]; concentration 36 µM): 142704 and 141754 and 139812 | MMV hits Cytotoxicity testing, raw plate signal (C3 cell line; REM 0.0175781 µM): 281684 and 292421 | MMV hits Cytotoxicity testing, raw plate signal (C3 cell line; REM 0.0351562 µM): 291406 and 276805 | MMV hits Cytotoxicity testing, raw plate signal (C3 cell line; REM 0.0703125 µM): 281356 and 294787 | MMV hits Cytotoxicity testing, raw plate signal (C3 cell line; REM 0.140625 µM): 287615 and 296564 | MMV hits Cytotoxicity testing, raw plate signal (C3 cell line; REM 0.28125 µM): 294079 and 296093 | MMV hits Cytotoxicity testing, raw plate signal (C3 cell line; REM 0.5625 µM): 294522 and 291744 | MMV hits Cytotoxicity testing, raw plate signal (C3 cell line; REM 1.125 µM): 302792 and 294805 | MMV hits Cytotoxicity testing, raw plate signal (C3 cell line; REM 2.25 µM): 325677 and 303163 | MMV hits Cytotoxicity testing, raw plate signal (C3 cell line; REM 4.5 µM): 318660 and 288026

CC(C)c1nc(CN(C)C(=O)N[C@H](C(=O)N[C@@H](Cc2ccccc2)C[C@H](O)[C@H](Cc2ccccc2)NC(=O)OCc2cncs2)C(C)C)cs1 [Ritonavir]
IC50 (icSARS-CoV-2-nLuc [1]; [5]): 7.2 µM | raw nLuc luminescence signal per well, dose response (icSARS-CoV-2-nLuc [1]; concentration 0.444444 µM): 2035673 and 1546345 and 1888256 and 1167395 and 1955627 and 1676062 and 1569839 and 1463523 | raw nLuc luminescence signal per well, dose response (icSARS-CoV-2-nLuc [1]; concentration 4 µM): 1601511 and 1681837 and 928783 and 1028382 and 1282975 and 1526902 and 1006334 and 1132442 | raw nLuc luminescence signal per well, dose response (icSARS-CoV-2-nLuc [1]; concentration 36 µM): 183316 and 177778 and 167818 and 167859 and 159406 and 217854 and 184869 and 201752
